Data on six compounds can be found in patent US10774109B2, “Crystal of reduced glutathione and method for producing same” (KYOWA HAKKO BIO CO., LTD., priority 2016, dated 2020).

Data set [1] is described as follows: Loose specific volume (Multi Tester MT-1001T). The following applies: for Difference in specific volume: loose minus dense specific volume; for Loose specific volume: α-type crystal. The format is physicochemical. As for the experimental part:
Here, the “loose specific volume” refers to a value which is obtained by dividing a volume occupied by a powder by a mass when the powder is filled in a container and the mass of the powder is measured.
[Measurement Conditions for Loose Specific Volume]
Vibration width: 0.6 to 0.7 mm

A short description of data set [2]: Dense specific volume (Multi Tester MT-1001T). The format is physicochemical. Particulars: α-type crystal; 200 taps. As for the experimental part: Here, the “dense specific volume” refers to a value which is obtained by dividing a volume occupied by a powder by a mass when the powder is filled in a container and the mass of the powder is measured, and thereafter a given impact is applied to the container.
[Measurement Conditions for Dense Specific Volume]

The nature of data set [3]: Crystal thickness by scanning electron microscope. Particulars: α-type crystal. The format is physicochemical. An excerpt: In this description, when a crystal is ascertained three-dimensionally using a microscope, the longest axis is referred to as “longitudinal axis”, and an axis perpendicular to the longitudinal axis is referred to as “lateral axis” (FIG. 2). Further, the length in the longitudinal axis direction of a crystal, the major axis of the cross section of the lateral axis, and the minor axis of the cross section of the lateral axis are referred to as “crystal length”, “crystal width”, and “crystal thickness”, respectively (see FIG. 2), and the averages thereof are referred to as “average length”, “average width”, and “average thickness”, respectively.
The crystal thickness can be measured, for example, using a scanning electron microscope [JSM-6510 (manufactured by JEOL Ltd.)] at a measurement magnification of 250 to 1000 times. For example, as for 50 crystals, crystals whose longitudinal axis is perpendicular to the scanning electron microscope field of view are selected, and the thickness of each crystal is measured (FIG. 2, right drawing), and the average thickness T is measured. A sample is fixed to an aluminum sample stand with a carbon double-sided tape.

The nature of data set [4]: Angle of rupture (Multi Tester MT-1001T).
Data set [5] can be described thus: Angle of repose (Multi Tester MT-1001T).
The conditions of data set [6]: compared with Comparative Example. From the text:
FIG. 1 illustrates the change in loose specific volume over time when crystals of reduced glutathione obtained in Example 3 and Comparative Example were pulverized. The vertical axis represents the loose specific volume (mL/g), and the horizontal axis represents the pulverization time (min).
The crystal of reduced glutathione of the present invention can be produced by further pulverizing the crystal of reduced glutathione of the present invention obtained by the above-mentioned method. The pulverization of the crystal can be performed, for example, using Osterizer Oster Vintage Blender 16-speed Dual Range (Osterizer OSTER) under the following conditions.
[Conditions for Pulverization of Crystal]
Sample feeding amount: 20 g/feed
The α-type crystals of reduced glutathione obtained in Example 3 and Comparative Example were pulverized, and the change in loose specific volume over time was measured.

Structures are written as SMILES.

Turning to `N[C@@H](CCC(=O)N[C@@H](CS)C(=O)NCC(=O)O)C(=O)O` [Commercially available product A, reduced glutathione], in data set [1], the “Difference in specific volume” value was found to be 2.20 mL/g and the Loose specific volume is 4.69 mL/g. The Dense specific volume in data set [2] is 2.49 mL/g. Further, in data set [3], the “Average crystal thickness T” value is 1.9 μm.
`N[C@@H](CCC(=O)N[C@@H](CS)C(=O)NCC(=O)O)C(=O)O` [Commercially available product B, reduced glutathione]: in data set [1], the “Difference in specific volume” value came out at 2.61 mL/g and the Loose specific volume is on record as 5.50 mL/g. This compound displayed a Dense specific volume in data set [2] of 2.88 mL/g.
Regarding `N[C@@H](CCC(=O)N[C@@H](CS)C(=O)NCC(=O)O)C(=O)O` [Comparative Example, reduced glutathione], in data set [1], the “Difference in specific volume” value is 1.48 mL/g. The Loose specific volume in data set [1] was determined as 3.42 mL/g. For the same compound, the Angle of rupture is listed as 41.5 ° in data set [4] (After pulverization) and 46.8 ° in data set [4] (Before pulverization). Besides, the Dense specific volume in data set [2] is 1.95 mL/g. In addition, the “Average crystal thickness T” value in data set [3] is recorded as 5.5 μm. Also, the Angle of repose amounted to 51.8 ° in data set [5] (After pulverization) and 51.4 ° in data set [5] (Before pulverization).
Take `N[C@@H](CCC(=O)N[C@@H](CS)C(=O)NCC(=O)O)C(=O)O` [Example 1, reduced glutathione]: in data set [1], the “Difference in specific volume” value is reported as 0.62 mL/g and the Loose specific volume came to 1.88 mL/g. This compound registered a Dense specific volume in data set [2] of 1.26 mL/g. Besides, the “Average crystal thickness T” value in data set [3] is 17.0 μm.
Take `N[C@@H](CCC(=O)N[C@@H](CS)C(=O)NCC(=O)O)C(=O)O` [Example 2, reduced glutathione]: in data set [1], the “Difference in specific volume” value was found to be 0.71 mL/g and the Loose specific volume came out at 2.00 mL/g. For the same compound, in data set [2], the Dense specific volume came out at 1.29 mL/g. Also, in data set [3], the “Average crystal thickness T” value amounted to 16.7 μm.
With `N[C@@H](CCC(=O)N[C@@H](CS)C(=O)NCC(=O)O)C(=O)O` [Example 3, reduced glutathione], the “Difference in specific volume” value in data set [1] is 0.71 mL/g. In data set [1], this compound had a Loose specific volume of 2.00 mL/g. Also, the “loose specific volume during pulverization” value in data set [6] (all pulverization times) is “smaller”. Besides, the “pulverization behaviour (speed of pulverization, convergence of specific volume)” value in data set [6] (FIG. 1) was “pulverized more promptly”. Besides, the Angle of rupture was determined as 31.1 ° in data set [4] (After pulverization) and 39.4 ° in data set [4] (Before pulverization). The same compound had a Dense specific volume in data set [2] of 1.29 mL/g. In addition, in data set [3], the “Average crystal thickness T” value came to 16.7 μm. The Angle of repose is listed as 37.4 ° in data set [5] (After pulverization) and 42.4 ° in data set [5] (Before pulverization). For the same compound, the flowability entry in data set [5] (from Table 3, before and after pulverization) is “the flowability is high”.
